# Laboratory results reported in PubChem BioAssay AID1259407 (Chemical Carcinogenesis Research Information System (CCRIS), 2018).
# The source made the active and inactive calls. No rule for the calls is given here.
# Test system: CCRIS mutagenicity, Ames/micronucleus/aberration tests
# Test: CCRIS mutagenicity studies
# [1] = Test System: AMES SALMONELLA TYPHIMURIUM, Strain/Indicator: TA98(NR), Metabolic Activation: NONE, Method: STANDARD PLATE
# [2] = Test System: AMES SALMONELLA TYPHIMURIUM, Strain/Indicator: TA98, Metabolic Activation: NONE, Method: STANDARD PLATE
smiles,measurement,setting,value
O=C(O)c1ccc([N+](=O)[O-])cc1[N+](=O)[O-],mutagenic call,"End Point: In vitro chromosomal aberrations, Test System: V79 Chinese hamster fibroblasts, Metabolic Activation: None",active; positive (structural changes)
same,mutagenic call,"End Point: In vitro micronucleus, Test System: HepG2 human hepatoma cells, Metabolic Activation: None",active; positive
same,mutagenic call,"Test System: AMES SALMONELLA TYPHIMURIUM, Strain/Indicator: TA98, Metabolic Activation: RAT, LIVER, S-9, AROCLOR, Method: PREINCUBATION",active; positive
same,mutagenic call,"Test System: AMES SALMONELLA TYPHIMURIUM, Strain/Indicator: TA98, Metabolic Activation: RAT, LIVER, S-9, KANECHLOR 500, Method: PREINCUBATION",inactive; negative
same,mutagenic call,"Test System: AMES SALMONELLA TYPHIMURIUM, Strain/Indicator: TA100, Metabolic Activation: RAT, LIVER, S-9, KANECHLOR 500, Method: PREINCUBATION",inactive; negative
same,mutagenic call,"Test System: Ames Salmonella typhimurium, Strain/Indicator: TA98, Metabolic Activation: None, Method: Standard plate",active; positive
same,mutagenic call,"Test System: Ames Salmonella typhimurium, Strain/Indicator: TA98, Metabolic Activation: Rat, Liver, S-9, Method: Standard plate",active; positive
same,mutagenic call,"Test System: Ames Salmonella typhimurium, Strain/Indicator: TA98NR, Metabolic Activation: None, Method: Standard plate","active; positive, ta98nr is the nitroreductase-deficient derivative of ta98."
same,mutagenic call,"Test System: Ames Salmonella typhimurium, Strain/Indicator: TA100, Metabolic Activation: None, Method: Standard plate",inactive; negative
same,mutagenic call,"Test System: Ames Salmonella typhimurium, Strain/Indicator: TA100, Metabolic Activation: Rat, Liver, S-9, Method: Standard plate",inactive; negative
CC(C)CCC[C@@H](C)[C@H]1CC[C@H]2[C@@H]3CC=C4C[C@@H](O)CC[C@]4(C)[C@H]3CC[C@]12C,mutagenic call,"Test System: CHINESE HAMSTER V-79, Strain/Indicator: V-79/OUABAIN, Metabolic Activation: NONE",inactive; negative
O=[N+]([O-])c1cc2c3c(ccc4cc([N+](=O)[O-])cc(c43)CC2)c1,mutagenic call,"Test System: AMES SALMONELLA TYPHIMURIUM, Strain/Indicator: TA98(1,8-DNP6), Metabolic Activation: NONE, Method: STANDARD PLATE",active; positive
same,mutagenic call,[1],active; positive
same,mutagenic call,[2],active; positive
COc1cccc2c1cc([N+](=O)[O-])c1c(C(=O)O)cc3c(c12)OCO3,mutagenic call,"End Point: IN VITRO CHROMOSOMAL ABERRATIONS, Test System: CHO (WBL) CELLS, Metabolic Activation: NONE",active; positive
same,mutagenic call,"End Point: IN VITRO CHROMOSOMAL ABERRATIONS, Test System: CHO (WBL) CELLS, Metabolic Activation: RAT, LIVER, S-9, AROCLOR 1254",active; positive
same,mutagenic call,"End Point: IN VITRO CHROMOSOMAL ABERRATIONS, Test System: CHO CELLS, Metabolic Activation: NONE",active; positive
same,mutagenic call,"End Point: IN VITRO CHROMOSOMAL ABERRATIONS, Test System: CHO CELLS, Metabolic Activation: S-9",active; positive
same,mutagenic call,"End Point: IN VITRO MICRONUCLEUS, Test System: CHO (WBL) CELLS, Metabolic Activation: RAT, LIVER, S-9, AROCLOR 1254",active; positive
same,mutagenic call,"End Point: IN VITRO MICRONUCLEUS, Test System: CHO CELLS, Metabolic Activation: S-9",active; positive
same,mutagenic call,"End Point: In vitro micronucleus, Test System: Human hepatoma (HepG2) cells, Metabolic Activation: None",active; positive
same,mutagenic call,"Test System: AMES SALMONELLA TYPHIMURIUM, Strain/Indicator: D3052, Metabolic Activation: NONE, Method: STANDARD PLATE",inactive; negative
same,mutagenic call,"Test System: AMES SALMONELLA TYPHIMURIUM, Strain/Indicator: D3052, Metabolic Activation: RAT, LIVER, S-9, PHENOBARBITAL, Method: STANDARD PLATE",inactive; negative
same,mutagenic call,"Test System: AMES SALMONELLA TYPHIMURIUM, Strain/Indicator: G46, Metabolic Activation: NONE, Method: STANDARD PLATE",inactive; negative
same,mutagenic call,"Test System: AMES SALMONELLA TYPHIMURIUM, Strain/Indicator: G46, Metabolic Activation: RAT, LIVER, S-9, PHENOBARBITAL, Method: STANDARD PLATE",inactive; negative
same,mutagenic call,[1],inactive; negative
same,mutagenic call,"Test System: AMES SALMONELLA TYPHIMURIUM, Strain/Indicator: TA98, Metabolic Activation: NONE",inactive; negative
same,mutagenic call,[2],inactive; negative
same,mutagenic call,"Test System: AMES SALMONELLA TYPHIMURIUM, Strain/Indicator: TA98, Metabolic Activation: RAT, LIVER, S-9, AROCLOR 1254, Method: STANDARD PLATE",active; positive
same,mutagenic call,"Test System: AMES SALMONELLA TYPHIMURIUM, Strain/Indicator: TA98, Metabolic Activation: RAT, LIVER, S-9, CLOPHEN A50",inactive; negative
same,mutagenic call,"Test System: AMES SALMONELLA TYPHIMURIUM, Strain/Indicator: TA98, Metabolic Activation: RAT, LIVER, S-9, PHENOBARBITAL, Method: STANDARD PLATE",active; positive
same,mutagenic call,"Test System: AMES SALMONELLA TYPHIMURIUM, Strain/Indicator: TA100(NR), Metabolic Activation: NONE, Method: STANDARD PLATE",inactive; negative
same,mutagenic call,"Test System: AMES SALMONELLA TYPHIMURIUM, Strain/Indicator: TA100(NR), Metabolic Activation: S-9, Method: STANDARD PLATE",inactive; negative
same,mutagenic call,"Test System: AMES SALMONELLA TYPHIMURIUM, Strain/Indicator: TA100, Metabolic Activation: NONE",active; positive
same,mutagenic call,"Test System: AMES SALMONELLA TYPHIMURIUM, Strain/Indicator: TA100, Metabolic Activation: NONE, Method: STANDARD PLATE",inactive; negative
same,mutagenic call,"Test System: AMES SALMONELLA TYPHIMURIUM, Strain/Indicator: TA100, Metabolic Activation: RAT, LIVER, S-9, AROCLOR 1254, Method: STANDARD PLATE",active; positive
same,mutagenic call,"Test System: AMES SALMONELLA TYPHIMURIUM, Strain/Indicator: TA100, Metabolic Activation: RAT, LIVER, S-9, CLOPHEN A50",active; positive
same,mutagenic call,"Test System: AMES SALMONELLA TYPHIMURIUM, Strain/Indicator: TA100, Metabolic Activation: RAT, LIVER, S-9, PHENOBARBITAL, Method: STANDARD PLATE",active; positive
same,mutagenic call,"Test System: AMES SALMONELLA TYPHIMURIUM, Strain/Indicator: TA100, Metabolic Activation: S-9, Method: STANDARD PLATE",active; positive
same,mutagenic call,"Test System: AMES SALMONELLA TYPHIMURIUM, Strain/Indicator: TA102, Metabolic Activation: NONE, Method: STANDARD PLATE",active; positive
same,mutagenic call,"Test System: AMES SALMONELLA TYPHIMURIUM, Strain/Indicator: TA1535, Metabolic Activation: NONE",inactive; negative
same,mutagenic call,"Test System: AMES SALMONELLA TYPHIMURIUM, Strain/Indicator: TA1535, Metabolic Activation: NONE, Method: STANDARD PLATE",active; positive
same,mutagenic call,"Test System: AMES SALMONELLA TYPHIMURIUM, Strain/Indicator: TA1535, Metabolic Activation: RAT, LIVER, S-9, CLOPHEN A50",inactive; negative
same,mutagenic call,"Test System: AMES SALMONELLA TYPHIMURIUM, Strain/Indicator: TA1535, Metabolic Activation: RAT, LIVER, S-9, PHENOBARBITAL, Method: STANDARD PLATE",active; positive
same,mutagenic call,"Test System: AMES SALMONELLA TYPHIMURIUM, Strain/Indicator: TA1537, Metabolic Activation: NONE",active; positive
same,mutagenic call,"Test System: AMES SALMONELLA TYPHIMURIUM, Strain/Indicator: TA1537, Metabolic Activation: NONE, Method: STANDARD PLATE",active; positive
same,mutagenic call,"Test System: AMES SALMONELLA TYPHIMURIUM, Strain/Indicator: TA1537, Metabolic Activation: RAT, LIVER, S-9, CLOPHEN A50",active; positive
same,mutagenic call,"Test System: AMES SALMONELLA TYPHIMURIUM, Strain/Indicator: TA1537, Metabolic Activation: S-9, Method: STANDARD PLATE",active; positive
same,mutagenic call,"Test System: AMES SALMONELLA TYPHIMURIUM, Strain/Indicator: TA1538, Metabolic Activation: NONE",inactive; negative
same,mutagenic call,"Test System: AMES SALMONELLA TYPHIMURIUM, Strain/Indicator: TA1538, Metabolic Activation: RAT, LIVER, S-9, CLOPHEN A50",inactive; negative
same,mutagenic call,"Test System: AMES SALMONELLA TYPHIMURIUM, Strain/Indicator: TA1978, Metabolic Activation: NONE, Method: STANDARD PLATE",inactive; negative
same,mutagenic call,"Test System: AMES SALMONELLA TYPHIMURIUM, Strain/Indicator: TA1978, Metabolic Activation: RAT, LIVER, S-9, PHENOBARBITAL, Method: STANDARD PLATE",inactive; negative
same,mutagenic call,"Test System: AMES SALMONELLA TYPHIMURIUM, Strain/Indicator: TM677/8-AZAGUANINE, Metabolic Activation: NONE, Method: SUSPENSION/PLATE",active; positive
same,mutagenic call,"Test System: AMES SALMONELLA TYPHIMURIUM, Strain/Indicator: YG1020, Metabolic Activation: NONE, Method: STANDARD PLATE",active; positive
same,mutagenic call,"Test System: AMES SALMONELLA TYPHIMURIUM, Strain/Indicator: YG1021, Metabolic Activation: NONE, Method: STANDARD PLATE",inactive; negative
same,mutagenic call,"Test System: AMES SALMONELLA TYPHIMURIUM, Strain/Indicator: YG1024, Metabolic Activation: NONE, Method: STANDARD PLATE",active; positive
same,mutagenic call,"Test System: AMES SALMONELLA TYPHIMURIUM, Strain/Indicator: YG1025, Metabolic Activation: NONE, Method: STANDARD PLATE",active; positive
same,mutagenic call,"Test System: AMES SALMONELLA TYPHIMURIUM, Strain/Indicator: YG1029, Metabolic Activation: NONE, Method: STANDARD PLATE",active; positive
same,mutagenic call,"Test System: CHINESE HAMSTER OVARY, Strain/Indicator: CHO-K1-BH4 (HGPRT), Metabolic Activation: NONE",active; positive
same,mutagenic call,"Test System: MOUSE LYMPHOMA, Strain/Indicator: L5178Y TK+/TK-, Metabolic Activation: NONE",active; positive
same,mutagenic call,"Test System: MOUSE LYMPHOMA, Strain/Indicator: L5178Y TK+/TK-, Metabolic Activation: RAT, LIVER, S-9, AROCLOR 1254",active; positive
